Common to all, as to type: biochemical
One test has as its target T1, JAK2 (Homo sapiens, UniProt O60674).
T1 construct: made in house; host or cells: SF9 insect cells (baculovirus)
Nature of the test: JAK2 inhibition (Table 4). To be noted: read-out: JAK2 Ki.

Another test has as its target T2, JAK3 (Homo sapiens, UniProt P52333).
T2 construct: made in house; host or cells: SF9 insect cells (baculovirus)
Description: JAK3 inhibition (Table 4). The settings on record: read-out: JAK3 Ki.

The next test concerns the target T3, JAK1 (Homo sapiens, UniProt P23458).
T3 construct: made in house; host or cells: SF9 insect cells (baculovirus)
Nature of the test: JAK1 inhibition (Table 4). To be noted: read-out: JAK1 Ki.

The target of a further test is T4, TYK2 (Homo sapiens, UniProt P29597).
T4 construct: made in house; host or cells: SF9 insect cells (baculovirus)
T4 sequence (P29597 873-1187): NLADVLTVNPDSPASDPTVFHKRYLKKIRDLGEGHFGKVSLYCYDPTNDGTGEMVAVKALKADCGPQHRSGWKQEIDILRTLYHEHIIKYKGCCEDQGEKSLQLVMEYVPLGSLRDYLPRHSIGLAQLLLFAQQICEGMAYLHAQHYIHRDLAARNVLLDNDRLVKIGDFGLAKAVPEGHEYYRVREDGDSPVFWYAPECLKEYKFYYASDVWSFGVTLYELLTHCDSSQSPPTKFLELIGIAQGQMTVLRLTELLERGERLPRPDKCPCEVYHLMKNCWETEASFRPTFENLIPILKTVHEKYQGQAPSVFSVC
Nature of the test: TYK2 inhibition (Table 4).

Structures are written as SMILES. pKi: −log10 of the molar value.

T2 sequence (P52333 783-1124): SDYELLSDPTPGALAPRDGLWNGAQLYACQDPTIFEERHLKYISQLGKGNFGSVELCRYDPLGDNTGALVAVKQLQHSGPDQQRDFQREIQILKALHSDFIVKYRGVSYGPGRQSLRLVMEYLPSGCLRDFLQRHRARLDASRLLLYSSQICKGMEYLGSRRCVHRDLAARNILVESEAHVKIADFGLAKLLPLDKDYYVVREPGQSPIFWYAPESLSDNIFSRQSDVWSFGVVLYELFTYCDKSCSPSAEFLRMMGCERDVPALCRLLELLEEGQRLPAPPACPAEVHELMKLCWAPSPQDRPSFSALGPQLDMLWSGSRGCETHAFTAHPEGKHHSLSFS
T1 sequence (O60674 812-1132): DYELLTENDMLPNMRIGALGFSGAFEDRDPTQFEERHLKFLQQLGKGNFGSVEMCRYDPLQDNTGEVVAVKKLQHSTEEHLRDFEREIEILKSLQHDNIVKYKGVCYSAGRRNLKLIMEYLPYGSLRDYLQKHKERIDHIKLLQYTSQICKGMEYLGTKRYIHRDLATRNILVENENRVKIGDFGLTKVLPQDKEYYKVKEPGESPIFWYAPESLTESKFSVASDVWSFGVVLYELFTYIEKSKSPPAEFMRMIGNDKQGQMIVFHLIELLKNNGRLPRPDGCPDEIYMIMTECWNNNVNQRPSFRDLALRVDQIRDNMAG
T3 sequence (P23458 852-1154): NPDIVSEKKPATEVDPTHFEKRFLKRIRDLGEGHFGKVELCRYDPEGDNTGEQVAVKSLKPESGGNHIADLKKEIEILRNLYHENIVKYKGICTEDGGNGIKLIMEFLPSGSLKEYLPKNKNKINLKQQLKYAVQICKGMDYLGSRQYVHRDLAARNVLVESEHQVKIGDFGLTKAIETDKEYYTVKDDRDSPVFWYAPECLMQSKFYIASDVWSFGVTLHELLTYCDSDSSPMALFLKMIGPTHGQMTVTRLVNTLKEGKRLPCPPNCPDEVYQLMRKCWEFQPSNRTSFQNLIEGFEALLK

Usually pKi stands for the Ki on a negative log10 scale, so that one unit is a factor of ten. For `CNc1nc2cnc3[nH]ccc3c2n1C1CCN(CCC#N)CC1` [Example 771, 3-[4-(2-Methylamino-6H-1,3,5,6 tetraaza-asindacen-1-yl)-piperidin-1-yl]-propionitrile], the negative logarithm of the Ki (pKi) on JAK2 is 8.18; on JAK3 it was 7.72; at JAK1, 8.69; on TYK2, 7.56.
Turning to `CNc1nc2cnc3[nH]ccc3c2n1C1CCN(Cc2cccc(C#N)c2)CC1` [Example 772, 3-[4-(2-Methylamino-6H-1,3,56-tetraaza-as-indacen-1-yl)-piperidine-1-yl-methyl]-benzonitrile], the pKi at JAK2 was 8.24; at JAK3, 7.36; at JAK1 it was 8.87; on TYK2, 6.49.
As for `CNc1nc2cnc3[nH]ccc3c2n1C1CCCOC1` (centres unmarked) [Example 773, Methyl-[1-(tetrahydro-pyran-3-yl)-1,6-dihydro-1,3,5,6-tetraaza-as-indacen-2-yl]-amine], the pKi on JAK2 was 7.09; on JAK3, 6.90; at JAK1 it was 7.91; at TYK2, 6.83.
Regarding `CNc1nc2cnc3[nH]ccc3c2n1C1CCN(S(C)(=O)=O)CC1` [Example 774, [1-(1-Methanesulfonyl-piperidin-4-yl) 1,6-dihydro-1,3,5,6-tetraaza-as-indacen-1-yl]-methyl-amine], the pKi on JAK2 was 7.08; on JAK3, 6.62; at JAK1, 7.39; on TYK2, 6.85.
For `C[C@@H](O)c1nc2cnc3[nH]ccc3c2n1C1CCC(C#N)CC1` (stereo partly drawn) [Example 776, 4-[2-((R)-1-Hydroxy-ethyl)-6H-1,3,5,6-tetraaza-as-indacen-1-yl]-cyclohexanecarbonitrile], the pKi at JAK2 was 7.98; on JAK3, 8.73; on JAK1 it was 9.00; at TYK2, 9.14.
Consider `N#CC1CCC(n2c(CO)nc3cnc4[nH]ccc4c32)CC1` (centres unmarked) [Example 777, 4-(2-Hydroxymethyl-6H-1,3,5,6-tetraaza-as-indacen-1-yl)-cyclohexanecarbonitrile], for which the pKi is 8.16 at JAK2, 8.98 on JAK3, 8.89 on JAK1 and 9.19 at TYK2.
In the case of `C[C@@H](O)c1nc2cnc3[nH]ccc3c2n1C1CCC(CCS(C)(=O)=O)CC1` (stereo partly drawn) [Example 778, (R)-1-{1-[4-(2-methanesulfonyl-ethyl)-cyclohexyl]-1,6-dihydro-1,3,5,6-tetraaza-as-indacen-2-yl}-ethanol], the negative logarithm of the Ki (pKi) at JAK2 is 7.88; on JAK3, 7.37; at JAK1 it was 9.19; at TYK2, 8.16.
For the compound `C[C@@H](O)c1nc2cnc3[nH]ccc3c2n1C1CCC(n2cncn2)CC1` (stereo partly drawn) [Example 779, (R)-1-[1-(4-[1,2,4]triazol-1-yl-cyclohexyl)-1,6-dihydro-1,3,5,6-tetraaza-as-indacen-2-yl]-ethanol], the pKi on JAK2 is 7.13; at JAK3, 6.63; on JAK1 it was 8.31; at TYK2 it was 7.41.
For the compound `C[C@H](O)c1nc2cnc3[nH]ccc3c2n1[C@@H]1CCCN(C(=O)CC(F)(F)F)C1` [Example 782, 3,3,3-Trifluoro-1-{(R)-3-[2-((S)-1-hydroxy-ethyl)-6H-1,3,5,6-tetraaza-as-indacen-1-yl]-piperidin-1-yl}-propan-1-one], the pKi is 5.83 on JAK2, 5.53 on JAK3, 6.54 at JAK1 and 5.52 at TYK2.
On to `C[C@@H](O)c1nc2cnc3[nH]ccc3c2n1[C@@H]1CCCN(C(=O)C2CCOCC2)C1` [Example 783, {(R)-3-[2-((R)-1-Hydroxy-ethyl)-6H-1,3,5,6-tetraaza-as-indacen-1-yl]-piperidin-1-yl}-(tetrahydro-pyran-4-yl)-methanone], for which the pKi was 5.83 on JAK2, 5.58 at JAK3, 6.86 on JAK1 and 5.75 at TYK2.
In the case of `C[C@@H](O)c1nc2cnc3[nH]ccc3c2n1[C@@H]1CCCN(C(=O)CC(F)(F)F)C1` [Example 785, 3,3,3-Trifluoro-1-{(R)-3-[2-((R)-1-hydroxy-ethyl)-6H-1,3,5,6-tetraaza-as-indacen-1-yl]-piperidin-1-yl}-propan-1-one], the pKi is 6.43 at JAK2, 6.25 at JAK3, 7.50 at JAK1 and 6.56 at TYK2.
In the same order, the values of `CC(O)c1nc2cnc3[nH]ccc3c2n1C1CCCN(C(=O)C2CCOC2)C1` (centres unmarked) [Example 786, {3-[2-(1-Hydroxy-ethyl)-6H-1,3,5,6-tetraaza-as-indacen-1-yl]-piperidin-1-yl}-(tetrahydro-furan-3-yl)-methanone] are 6.23, 5.95, 7.28 and 6.22.
For the compound `C[C@@H](O)c1nc2cnc3[nH]ccc3c2n1[C@@H]1CCCN(C(=O)C2CCCC2)C1` [Example 788, Cyclopentyl-{(R)-3-[2-((R)-1-hydroxy-ethyl)-6H-1,3,5,6-tetraaza-as-indacen-1-yl]-piperidin-1-yl}-methanone], the pKi was 6.10 at JAK2, 6.07 at JAK3, 7.17 on JAK1 and 6.14 at TYK2.
Turning to `CC(O)c1nc2cnc3[nH]ccc3c2n1C1CCCN(C(=O)C2CC2(F)F)C1` (centres unmarked) [Example 790, (2,2-Difluoro-cyclopropyl)-{3-[2-(1-hydroxy-ethyl)-6H-1,3,5,6-tetraaza-as-indacen-1-yl]-piperidin-1-yl}-methanone], the negative logarithm of the Ki (pKi) on JAK2 is 6.13; at JAK3, 6.05; on JAK1, 7.10; at TYK2, 6.23.
For `C[C@@H](O)c1nc2cnc3[nH]ccc3c2n1[C@@H]1CCCN(C(=O)CC2CC2)C1` [Example 791, 2-Cyclopropyl-1-{(R)-3-[2-((R)-1-hydroxy-ethyl)-6H-1,3,5,6-tetraaza-as-indacen-1-yl]-piperidin-1-yl}-ethanone] the same measures were 5.97, 6.09, 7.08 and 6.09.
With `C[C@@H](O)c1nc2cnc3[nH]ccc3c2n1[C@@H]1CCCN(C(=O)C2CCC2)C1` [Example 792, Cyclobutyl-{(R)-3-[2-((R)-1-hydroxy-ethyl)-6H-1,3,5,6-tetraaza-as-indacen-1-yl]-piperidin-1-yl}-methanone], the negative logarithm of the Ki (pKi) on JAK2 is 6.59; at JAK3 it was 5.97; at JAK1 it was 7.12; at TYK2 it was 6.35.
Consider `CC(C)CC(=O)N1CCC[C@@H](n2c([C@@H](C)O)nc3cnc4[nH]ccc4c32)C1` [Example 793, 1-{(R)-3-[2-((R)-1-Hydroxy-ethyl)-6H-1,3,5,6-tetraaza-as-indacen-1-yl]-piperidin-1-yl}-3-methyl-butan-1-one], for which the pKi on JAK2 was 5.64; at JAK3 it was 5.63; at JAK1 it was 6.57; on TYK2, 5.70.
For `C[C@@H](O)c1nc2cnc3[nH]ccc3c2n1[C@@H]1CCCN(C(=O)C2CC2)C1` [Example 794, Cyclopropyl-{(R)-3-[2-((R)-1-hydroxy-ethyl)-6H-1,3,5,6-tetraaza-as-indacen-1-yl]-piperidin-1-yl}-methanone] the same measures were 6.05, 5.91, 6.94 and 6.38.
For `CCC(=O)N1CCC[C@@H](n2c([C@@H](C)O)nc3cnc4[nH]ccc4c32)C1` [Example 795, 1-{(R)-3-[2-((R)-1-Hydroxy-ethyl)-6H-1,3,5,6-tetraaza-as-indacen-1-yl]-piperidin-1-yl}-propan-1-one] the same measures were 6.06, 5.86, 6.66 and 6.16.
As for `CC(O)c1nc2cnc3[nH]ccc3c2n1C1CCCN(C(=O)C2CC2C)C1` (centres unmarked) [Example 796, {3-[2-(1-Hydroxy-ethyl)-6H-1,3,5,6-tetraaza-as-indacen-1-yl]-piperidin-1-yl}-(2-methyl-cyclopropyl)-methanone], the negative-log Ki (pKi) is 6.13 at JAK2, 6.05 on JAK3, 7.26 on JAK1 and 6.21 at TYK2.
`CCOC(=O)N1CCC[C@@H](n2c([C@@H](C)O)nc3cnc4[nH]ccc4c32)C1` [Example 800, (R)-3-[2-((R)-1-Hydroxy-ethyl)-6H-1,3,5,6-tetraaza-as-indacen-1-yl]-piperidine-1-carboxylic acid ethyl ester]: the pKi at JAK2 is 5.84; on JAK3, 5.85; at JAK1, 6.79; on TYK2 it was 5.96.
In the same order, the values of `O=C1CCCN1CCc1nc2cnc3[nH]ccc3c2n1C1CCCCC1` [Example 801, 1-[2-(1-Cyclohexyl-1,6-dihydro-1,3,5,6-tetraaza-as-indacen-2-yl)-ethyl]-pyrrolidin-2-one] are 7.29, 7.11, 8.11 and 7.19.
In the same order, the values of `CC(=O)N(C)CCc1nc2cnc3[nH]ccc3c2n1C1CCCCC1` [Example 802, N-[2-(1-Cyclohexyl-1,6-dihydro-1,3,5,6-tetraaza-as-indacen-2-yl)-ethyl]-N-methyl-acetamide] are 7.31, 7.10, 8.11 and 7.26.

The record behind these values is patent publication US8461328B2, “Tricyclic heterocyclic compounds, compositions and methods of use thereof” (Genentech, Inc., priority 2010, dated 2013).
